Laboratory results as given in ChEMBL document CHEMBL1201862, “PubChem BioAssay data set” (2004).
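The compound was tested at five concentrations on cells cultured in 96-well plates, with a 48-hour exposure period. Here, GI50 denotes the concentration required for 50% inhibition of growth.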 The source made the active and inactive calls. Cut-off read from the data, not from the text of the source: active = GI50 up to about 1.1 µM and inactive = higher.

How the values were obtained:
Experiment in all cases: NCI-60 cell line screen, 48 h
786-0 = system: 786-0
A498 = system: A498
A549 = system: A549
BT-549 = system: BT-549
CAKI-1 = system: CAKI-1
CCRF-CEM = system: CCRF-CEM
COLO 205 = system: COLO 205
DU-145 = system: DU-145
HCC 2998 = system: HCC 2998
HCT-116 = system: HCT-116
HCT-15 = system: HCT-15
HL-60 = system: HL-60
HOP-62 = system: HOP-62
HOP-92 = system: HOP-92
HT-29 = system: HT-29
Hs-578T = system: Hs-578T
IGROV-1 = system: IGROV-1
K562 = system: K562
KM12 = system: KM12
LOX IMVI = system: LOX IMVI
MCF7 = system: MCF7
MDA-MB-231 = system: MDA-MB-231
MDA-MB-435 = system: MDA-MB-435
MOLT-4 = system: MOLT-4
Malme-3M = system: Malme-3M
NCI-H226 = system: NCI-H226
NCI-H460 = system: NCI-H460
NCI-H522 = system: NCI-H522
NCI/ADR-RES = system: NCI/ADR-RES
OVCAR-3 = system: OVCAR-3
OVCAR-4 = system: OVCAR-4
OVCAR-5 = system: OVCAR-5
OVCAR-8 = system: OVCAR-8
PC-3 = system: PC-3
RPMI-8226 = system: RPMI-8226
RXF 393 = system: RXF 393
SF-268 = system: SF-268
SF-295 = system: SF-295
SF-539 = system: SF-539
SK-MEL-2 = system: SK-MEL-2
SK-MEL-5 = system: SK-MEL-5
SN12C = system: SN12C
SNB-75 = system: SNB-75
SR = system: SR
T47D = system: T47D
TK-10 = system: TK-10
U-251 = system: U-251
UACC-257 = system: UACC-257
UACC-62 = system: UACC-62
UO-31 = system: UO-31
ACHN = system: ACHN
EKVX = system: EKVX
M14 = system: M14
MDA-N = system: MDA-N
NCI-H23 = system: NCI-H23
SK-MEL-28 = system: SK-MEL-28
SK-OV-3 = system: SK-OV-3
SNB-19 = system: SNB-19
SW-620 = system: SW-620

Nc1ncc(/C=N/O)c(NCC2(CO)CC(CCc3ccccc3)C2)n1 (stereo not drawn)
GI50 (786-0): 15.2 µM (inactive) | GI50 (A498): 11 µM (inactive) | GI50 (A549): 2.48 µM (inactive) | GI50 (BT-549): > 10 µM (inactive) | GI50 (CAKI-1): 18.4 µM (inactive) | GI50 (CCRF-CEM): 14.7 µM (inactive) | GI50 (COLO 205): 10.8 µM (inactive) | GI50 (DU-145): 5.41 µM (inactive) | GI50 (HCC 2998): 15.5 µM (inactive) | GI50 (HCT-116): 0.0569 µM (active) | GI50 (HCT-15): 13.1 µM | GI50 (HL-60): 2.2 µM (inactive) | GI50 (HOP-62): 11.3 µM (inactive) | GI50 (HOP-92): 12.4 µM (inactive) | GI50 (HT-29): 2.67 µM (inactive) | GI50 (Hs-578T): 22.4 µM (inactive) | GI50 (IGROV-1): 6.75 µM (inactive) | GI50 (K562): 0.144 µM (active) | GI50 (KM12): 14.3 µM (inactive) | GI50 (LOX IMVI): 2.39 µM (inactive) | GI50 (MCF7): 4.58 µM (inactive) | GI50 (MDA-MB-231): 9.71 µM (inactive) | GI50 (MDA-MB-435): 11.1 µM (inactive) | GI50 (MOLT-4): 3.36 µM (inactive) | GI50 (Malme-3M): 12.1 µM (inactive) | GI50 (NCI-H226): 12.9 µM (inactive) | GI50 (NCI-H460): 5.74 µM (inactive) | GI50 (NCI-H522): 3.22 µM (inactive) | GI50 (NCI/ADR-RES): 5.82 µM (inactive) | GI50 (OVCAR-3): 11 µM (inactive) | GI50 (OVCAR-4): 8.26 µM (inactive) | GI50 (OVCAR-5): 16.9 µM (inactive) | GI50 (OVCAR-8): 11.1 µM (inactive) | GI50 (PC-3): 13.9 µM (inactive) | GI50 (RPMI-8226): 5.73 µM (inactive) | GI50 (RXF 393): 12.1 µM (inactive) | GI50 (SF-268): 23.9 µM (inactive) | GI50 (SF-295): 1.02 µM (active) | GI50 (SF-539): 13.8 µM (inactive) | GI50 (SK-MEL-2): 16.1 µM (inactive) | GI50 (SK-MEL-5): 0.0577 µM (active) | GI50 (SN12C): 17 µM (inactive) | GI50 (SNB-75): 14.5 µM (inactive) | GI50 (SR): 4.36 µM (inactive) | GI50 (T47D): 0.0111 µM (active) | GI50 (TK-10): > 10 µM (inactive) | GI50 (U-251): 12 µM (inactive) | GI50 (UACC-257): 10.9 µM (inactive) | GI50 (UACC-62): 12.3 µM (inactive) | GI50 (UO-31): 5.45 µM (inactive)

N#Cc1nc(C2CCC(=O)O2)oc1N (stereo not drawn)
GI50 (786-0): > 100 µM (inactive) | GI50 (A498): > 100 µM (inactive) | GI50 (ACHN): > 100 µM (inactive) | GI50 (BT-549): > 100 µM (inactive) | GI50 (CAKI-1): > 100 µM (inactive) | GI50 (CCRF-CEM): > 100 µM (inactive) | GI50 (COLO 205): > 100 µM (inactive) | GI50 (DU-145): > 100 µM (inactive) | GI50 (EKVX): > 100 µM (inactive) | GI50 (HCT-116): 83 µM (inactive) | GI50 (HCT-15): > 100 µM | GI50 (HL-60): > 100 µM (inactive) | GI50 (HOP-62): > 100 µM (inactive) | GI50 (HT-29): > 100 µM (inactive) | GI50 (Hs-578T): > 100 µM (inactive) | GI50 (IGROV-1): > 100 µM (inactive) | GI50 (K562): > 100 µM (inactive) | GI50 (KM12): > 100 µM (inactive) | GI50 (LOX IMVI): 72.9 µM (inactive) | GI50 (M14): > 100 µM (inactive) | GI50 (MCF7): > 100 µM (inactive) | GI50 (MDA-MB-231): > 100 µM (inactive) | GI50 (MDA-MB-435): > 100 µM (inactive) | GI50 (MDA-N): > 100 µM (inactive) | GI50 (MOLT-4): > 100 µM (inactive) | GI50 (Malme-3M): 13.4 µM (inactive) | GI50 (NCI-H226): > 100 µM (inactive) | GI50 (NCI-H23): > 100 µM (inactive) | GI50 (NCI-H460): > 100 µM (inactive) | GI50 (NCI/ADR-RES): > 100 µM (inactive) | GI50 (OVCAR-3): > 100 µM (inactive) | GI50 (OVCAR-5): > 100 µM (inactive) | GI50 (OVCAR-8): > 100 µM (inactive) | GI50 (PC-3): > 100 µM (inactive) | GI50 (RPMI-8226): > 100 µM (inactive) | GI50 (RXF 393): > 100 µM (inactive) | GI50 (SF-268): > 100 µM (inactive) | GI50 (SF-295): > 100 µM (inactive) | GI50 (SF-539): > 100 µM (inactive) | GI50 (SK-MEL-28): > 100 µM (inactive) | GI50 (SK-MEL-2): > 100 µM (inactive) | GI50 (SK-MEL-5): > 100 µM (inactive) | GI50 (SK-OV-3): > 100 µM (inactive) | GI50 (SN12C): > 100 µM (inactive) | GI50 (SNB-19): > 100 µM (inactive) | GI50 (SNB-75): 29 µM (inactive) | GI50 (SR): > 100 µM (inactive) | GI50 (SW-620): > 100 µM (inactive) | GI50 (TK-10): > 100 µM (inactive) | GI50 (U-251): > 100 µM (inactive) | GI50 (UACC-257): > 100 µM (inactive) | GI50 (UACC-62): > 100 µM (inactive) | GI50 (UO-31): > 100 µM (inactive)
